Measurements as given in ChEMBL document CHEMBL1156289, “Potent and selective inhibition of human cytochrome P450 3A4 by seco-pancratistatin structural analogs” (Bioorg Med Chem Lett, 2010).
Activity calls are given as the source filed them. The calls are words filed in the database; no cut-off is given here.

Columns and labels:
MCF7 = experiment: Cytotoxicity against human MCF7 cells at 10 uM; assay type: functional, cell-based
Cytochrome P450 3A4 [1] = biological target: T1, Cytochrome P450 3A4 (Homo sapiens, UniProt P08684); experiment: Inhibition of human recombinant CYP3A4 assessed as biotransformation of […] measured every minute for 15 mins by fluorescence intensity assay; assay type: ADME
Cytochrome P450 3A4 [2] = biological target: T1, Cytochrome P450 3A4; experiment: Inhibition of human recombinant CYP3A4 assessed as biotransformation of […] at 10 uM measured every minute for 15 mins by fluorescence intensity assay; assay type: ADME

T1 sequence (P08684 whole entry): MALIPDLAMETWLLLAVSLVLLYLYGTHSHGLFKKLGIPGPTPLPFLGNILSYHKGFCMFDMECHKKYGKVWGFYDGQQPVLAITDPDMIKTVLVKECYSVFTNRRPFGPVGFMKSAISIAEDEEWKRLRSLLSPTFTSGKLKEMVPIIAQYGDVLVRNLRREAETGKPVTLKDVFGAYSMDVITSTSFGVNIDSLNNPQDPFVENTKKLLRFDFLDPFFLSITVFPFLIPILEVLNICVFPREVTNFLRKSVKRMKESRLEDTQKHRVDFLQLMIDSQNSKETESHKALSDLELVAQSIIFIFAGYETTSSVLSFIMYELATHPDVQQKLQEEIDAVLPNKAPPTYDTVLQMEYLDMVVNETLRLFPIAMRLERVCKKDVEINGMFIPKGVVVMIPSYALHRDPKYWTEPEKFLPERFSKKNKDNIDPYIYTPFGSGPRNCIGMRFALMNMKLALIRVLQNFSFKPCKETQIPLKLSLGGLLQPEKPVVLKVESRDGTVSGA

Ki (Cytochrome P450 3A4 [1]) [nM]	Ki (Cytochrome P450 3A4 [2])	Compound	Activity (MCF7)
		COCO[C@@H]([C@@H]1OC(C)(C)O[C@H]1CO[Si](c1ccccc1)(c1ccccc1)C(C)(C)C)[C@@H](CNC(=O)c1ccccc1)c1ccc2c(c1)OCO2	inactive
1780		COCO[C@H]([C@@H]1OC(C)(C)O[C@H]1CO)[C@H](CNC(=O)c1ccccc1)c1ccc2c(c1)OCO2	inactive
		COCO[C@@H]([C@@H]1OC(C)(C)O[C@H]1COS(=O)(=O)c1ccc(C)cc1)[C@@H](CNC(=O)c1ccccc1)c1ccc2c(c1)OCO2	inactive
		COCO[C@@H]([C@@H]1OC(C)(C)O[C@H]1CO)[C@@H](CNC(=O)c1ccccc1)c1ccc2c(c1)OCO2	inactive
30		COCO[C@H]([C@@H]1OC(C)(C)O[C@H]1CO[Si](C)(C)C(C)(C)C)[C@H](CNC(=O)c1ccccc1)c1ccc2c(c1)OCO2	inactive
240		COCO[C@H]([C@@H]1OC(C)(C)O[C@H]1CO[Si](C)(C)C(C)(C)C)[C@H](CNC(=O)OC(C)(C)C)c1ccc2c(c1)OCO2	inactive
	Not Active	COCO[C@H]([C@@H]1OC(C)(C)O[C@H]1CO[Si](C)(C)C(C)(C)C)[C@H](CN=[N+]=[N-])c1ccc2c(c1)OCO2	inactive
		COCO[C@@H]([C@@H]1OC(C)(C)O[C@H]1CO[Si](C)(C)C(C)(C)C)[C@@H](CNC(=O)OC(C)(C)C)c1ccc2c(c1)OCO2	inactive
		O=C(NC[C@H](c1ccc2c(c1)OCO2)[C@H](O)[C@H](O)[C@@H](O)CO)c1ccccc1	inactive
		O=C(NC[C@@H](c1ccc2c(c1)OCO2)[C@@H](O)[C@H](O)[C@@H](O)CO)c1ccccc1	inactive
		COCO[C@@H]([C@@H]1OC(C)(C)O[C@H]1CO[Si](C)(C)C(C)(C)C)[C@@H](CNC(=O)c1ccccc1)c1ccc2c(c1)OCO2	inactive
	Not Active	COCO[C@H]([C@@H]1OC(C)(C)O[C@H]1CO[Si](C)(C)C(C)(C)C)[C@H](CO)c1ccc2c(c1)OCO2	
	Not Active	CC(C)OC(=O)[C@H](c1ccc2c(c1)OCO2)[C@H](O)[C@@H]1OC(C)(C)O[C@H]1CO[Si](C)(C)C(C)(C)C	
		CC1(C)O[C@@H]([C@H](O)[C@@H](CNC(=O)c2ccccc2)c2ccc3c(c2)OCO3)[C@H](CO)O1	inactive
		CC1(C)O[C@@H]([C@H](O)[C@@H](CNC(=O)c2ccccc2)c2ccc3c(c2)OCO3)[C@H](CO[Si](C)(C)C(C)(C)C)O1	inactive
70		COCO[C@H]([C@@H]1OC(C)(C)O[C@H]1COS(=O)(=O)c1ccc(C)cc1)[C@H](CNC(=O)c1ccccc1)c1ccc2c(c1)OCO2	inactive
		COCO[C@@H]([C@@H]1OC(C)(C)O[C@H]1COC(C)=O)[C@@H](CNC(=O)c1ccccc1)c1ccc2c(c1)OCO2	inactive
